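These data come from cells grown in 96-well plates and exposed to compound for 48 hours at five concentrations. GI50 = concentration required for 50% inhibition of growth.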 The source made the active and inactive calls. Cut-off read from the data, not from the text of the source: active = GI50 up to about 1.1 µM and inactive = higher.
Tests used:
Experiment in all cases: NCI-60 cell line screen, 48 h
[1] = test system: SW-620
[2] = test system: KM-20L2
[3] = test system: HOP-62
[4] = test system: HL-60
[5] = test system: XF498
[6] = test system: HCT-15
[7] = test system: U-251
[8] = test system: SK-MEL-5
[9] = test system: EKVX
[10] = test system: UO-31
[11] = test system: DLD-1
[12] = test system: LOX IMVI
[13] = test system: HCT-116
[14] = test system: K562
[15] = test system: TK-10
[16] = test system: NCI-H460
[17] = test system: DMS-273
[18] = test system: NCI-H522
[19] = test system: SK-MEL-2
[20] = test system: KM12
[21] = test system: ACHN
[22] = test system: LXFL 529
[23] = test system: SR
[24] = test system: SF-295
[25] = test system: SK-MEL-28
[26] = test system: UACC-62
[27] = test system: M19-MEL
[28] = test system: SNB-75
[29] = test system: OVCAR-4
[30] = test system: RXF 393
[31] = test system: MOLT-4
[32] = test system: OVCAR-8
[33] = test system: HT-29
[34] = test system: A549
[35] = test system: DMS-114
[36] = test system: M14
[37] = test system: SF-539
[38] = test system: COLO 205
[39] = test system: NCI-H226
[40] = test system: SF-268
[41] = test system: 786-0
[42] = test system: SNB-19
[43] = test system: IGROV-1
[44] = test system: CCRF-CEM
[45] = test system: NCI-H23
[46] = test system: OVCAR-5
[47] = test system: SN12C
[48] = test system: HOP-92
[49] = test system: SK-OV-3
[50] = test system: A498
[51] = test system: SNB-78
[52] = test system: UACC-257
[53] = test system: CAKI-1
[54] = test system: Hs-578T
[55] = test system: BT-549
[56] = test system: HCC 2998
[57] = test system: RPMI-8226
[58] = test system: MCF7
[59] = test system: MDA-MB-231
[60] = test system: Malme-3M
[61] = test system: OVCAR-3
[62] = test system: NCI/ADR-RES
[63] = test system: MDA-N
[64] = test system: PC-3
[65] = test system: T47D
[66] = test system: DU-145
[67] = test system: MDA-MB-435

CN(C)CCNC(=O)c1cccc2c(Nc3ccc(S(=O)(=O)N=C(N)N)cc3)c3ccccc3nc12
GI50 [1]: 7.23 µM (inactive)
GI50 [2]: 32.9 µM (inactive)
GI50 [3]: 11.3 µM (inactive)
GI50 [4]: 0.684 µM (active)
GI50 [5]: 19.3 µM (inactive)
GI50 [6]: 99.1 µM
GI50 [7]: 8.36 µM (inactive)
GI50 [8]: 13.9 µM (inactive)
GI50 [9]: 20.6 µM (inactive)
GI50 [10]: 10 µM (inactive)
GI50 [11]: 69.8 µM (inactive)
GI50 [12]: 5.94 µM (inactive)
GI50 [13]: 25.8 µM (inactive)
GI50 [14]: 11.9 µM (inactive)
GI50 [15]: 75.9 µM (inactive)
GI50 [16]: 3.17 µM (inactive)
GI50 [17]: 6.59 µM (inactive)
GI50 [18]: 3.97 µM (inactive)
GI50 [19]: 19.2 µM (inactive)
GI50 [20]: 31.3 µM (inactive)
GI50 [21]: 22.1 µM (inactive)
GI50 [22]: 7.89 µM (inactive)
GI50 [23]: 2.61 µM (inactive)
GI50 [24]: 17.3 µM (inactive)
GI50 [25]: 24.5 µM (inactive)
GI50 [26]: 10.3 µM (inactive)
GI50 [27]: 18.7 µM (inactive)
GI50 [28]: 15.1 µM (inactive)
GI50 [29]: 13.5 µM (inactive)
GI50 [30]: 28 µM (inactive)
GI50 [31]: 2.03 µM (inactive)
GI50 [32]: 8.79 µM (inactive)
GI50 [33]: 16.3 µM (inactive)
GI50 [34]: 10.6 µM (inactive)
GI50 [35]: 2.34 µM (inactive)
GI50 [36]: 30.8 µM (inactive)
GI50 [37]: 11.3 µM (inactive)
GI50 [38]: 9.04 µM (inactive)
GI50 [39]: 2.19 µM (inactive)
GI50 [40]: 7.24 µM (inactive)
GI50 [41]: 18 µM (inactive)
GI50 [42]: 3.37 µM (inactive)
GI50 [43]: 7.1 µM (inactive)
GI50 [44]: 2.57 µM (inactive)
GI50 [45]: 29 µM (inactive)
GI50 [46]: 28.4 µM (inactive)
GI50 [47]: 5.15 µM (inactive)

CCSc1c2ccccc2nc2c(OC)ccc(OC)c12
GI50 [3]: 36.5 µM (inactive)
GI50 [4]: 23.3 µM (inactive)
GI50 [48]: 22.3 µM (inactive)
GI50 [7]: 19.3 µM (inactive)
GI50 [9]: > 100 µM (inactive)
GI50 [10]: 25.9 µM (inactive)
GI50 [49]: 24.7 µM (inactive)
GI50 [13]: 20.1 µM (inactive)
GI50 [15]: 33.8 µM (inactive)
GI50 [16]: 20.7 µM (inactive)
GI50 [17]: 21.9 µM (inactive)
GI50 [50]: 31 µM (inactive)
GI50 [18]: 41.2 µM (inactive)
GI50 [20]: 24.7 µM (inactive)
GI50 [23]: 23.9 µM (inactive)
GI50 [24]: 25.2 µM (inactive)
GI50 [25]: 19.8 µM (inactive)
GI50 [26]: 20.6 µM (inactive)
GI50 [27]: 18.5 µM (inactive)
GI50 [30]: 18.6 µM (inactive)
GI50 [31]: 22 µM (inactive)
GI50 [32]: 22.1 µM (inactive)
GI50 [33]: 25.7 µM (inactive)
GI50 [34]: 70.6 µM (inactive)
GI50 [51]: 14.5 µM (inactive)
GI50 [36]: 35.7 µM (inactive)
GI50 [39]: 25.1 µM (inactive)
GI50 [40]: 22.8 µM (inactive)
GI50 [42]: 29.1 µM (inactive)
GI50 [43]: 26.7 µM (inactive)
GI50 [44]: 36.3 µM (inactive)
GI50 [45]: > 10 µM (inactive)
GI50 [46]: 42.3 µM (inactive)
GI50 [52]: 22.4 µM (inactive)

CCOC1SC(SC)=NN1C(=O)C(OC(C)=O)C(OC(C)=O)C(OC(C)=O)C(OC(C)=O)C(=O)N1N=C(SC)SC1OCC (centres undefined)
GI50 [1]: > 100 µM (inactive)
GI50 [53]: > 100 µM (inactive)
GI50 [3]: > 100 µM (inactive)
GI50 [54]: 35.2 µM (inactive)
GI50 [55]: > 100 µM (inactive)
GI50 [4]: > 100 µM (inactive)
GI50 [6]: > 100 µM
GI50 [48]: 38.2 µM (inactive)
GI50 [56]: > 100 µM (inactive)
GI50 [7]: 86.3 µM (inactive)
GI50 [8]: > 100 µM (inactive)
GI50 [9]: > 100 µM (inactive)
GI50 [57]: > 100 µM (inactive)
GI50 [10]: > 100 µM (inactive)
GI50 [49]: > 100 µM (inactive)
GI50 [12]: > 100 µM (inactive)
GI50 [13]: 88.5 µM (inactive)
GI50 [14]: > 100 µM (inactive)
GI50 [15]: > 100 µM (inactive)
GI50 [16]: > 100 µM (inactive)
GI50 [50]: > 100 µM (inactive)
GI50 [18]: > 100 µM (inactive)
GI50 [58]: > 100 µM (inactive)
GI50 [19]: > 100 µM (inactive)
GI50 [59]: > 100 µM (inactive)
GI50 [20]: > 100 µM (inactive)
GI50 [21]: > 100 µM (inactive)
GI50 [60]: > 100 µM (inactive)
GI50 [23]: > 100 µM (inactive)
GI50 [61]: > 100 µM (inactive)
GI50 [24]: > 100 µM (inactive)
GI50 [25]: > 100 µM (inactive)
GI50 [26]: > 100 µM (inactive)
GI50 [28]: 48.3 µM (inactive)
GI50 [62]: > 100 µM (inactive)
GI50 [29]: 78.5 µM (inactive)
GI50 [30]: 75.2 µM (inactive)
GI50 [31]: > 100 µM (inactive)
GI50 [32]: > 100 µM (inactive)
GI50 [63]: > 100 µM (inactive)
GI50 [33]: > 100 µM (inactive)
GI50 [34]: > 100 µM (inactive)
GI50 [64]: > 100 µM (inactive)
GI50 [36]: > 100 µM (inactive)
GI50 [37]: 69.7 µM (inactive)
GI50 [38]: > 100 µM (inactive)
GI50 [39]: > 100 µM (inactive)
GI50 [40]: > 100 µM (inactive)
GI50 [41]: 62.1 µM (inactive)
GI50 [65]: > 100 µM (inactive)
GI50 [42]: > 100 µM (inactive)
GI50 [66]: > 100 µM (inactive)
GI50 [43]: > 100 µM (inactive)
GI50 [44]: > 100 µM (inactive)
GI50 [45]: > 100 µM (inactive)
GI50 [46]: > 100 µM (inactive)
GI50 [67]: > 100 µM (inactive)
GI50 [52]: > 100 µM (inactive)
GI50 [47]: > 100 µM (inactive)

CC(C)=CCc1c(O)cc2oc(-c3ccc(O)cc3O)cc(=O)c2c1O
GI50 [1]: 28 µM (inactive)
GI50 [53]: 28.5 µM (inactive)
GI50 [3]: 33.3 µM (inactive)
GI50 [54]: 42.8 µM (inactive)
GI50 [55]: 29.8 µM (inactive)
GI50 [4]: 20.1 µM (inactive)
GI50 [6]: 23 µM
GI50 [48]: 32.4 µM (inactive)
GI50 [56]: 17.3 µM (inactive)
GI50 [7]: 32.2 µM (inactive)
GI50 [8]: 19.9 µM (inactive)
GI50 [9]: 42.3 µM (inactive)
GI50 [57]: 17.4 µM (inactive)
GI50 [10]: 4.32 µM (inactive)
GI50 [49]: 36 µM (inactive)
GI50 [12]: 9.53 µM (inactive)
GI50 [13]: 25.1 µM (inactive)
GI50 [14]: 8.87 µM (inactive)
GI50 [15]: 22 µM (inactive)
GI50 [16]: 36.6 µM (inactive)
GI50 [50]: 44.2 µM (inactive)
GI50 [18]: 22.3 µM (inactive)
GI50 [58]: 24.4 µM (inactive)
GI50 [19]: 25.4 µM (inactive)
GI50 [59]: 26.4 µM (inactive)
GI50 [20]: 19.5 µM (inactive)
GI50 [21]: 26.9 µM (inactive)
GI50 [60]: 25.3 µM (inactive)
GI50 [23]: 18.2 µM (inactive)
GI50 [61]: 21.8 µM (inactive)
GI50 [24]: 31.6 µM (inactive)
GI50 [25]: 31.6 µM (inactive)
GI50 [26]: 18.1 µM (inactive)
GI50 [28]: 23.8 µM (inactive)
GI50 [62]: 33.3 µM (inactive)
GI50 [29]: 20.2 µM (inactive)
GI50 [30]: 26.4 µM (inactive)
GI50 [31]: 1.95 µM (inactive)
GI50 [32]: 36.7 µM (inactive)
GI50 [63]: 25.2 µM (inactive)
GI50 [33]: 23.1 µM (inactive)
GI50 [34]: 28.5 µM (inactive)
GI50 [64]: 34.7 µM (inactive)
GI50 [36]: 27.9 µM (inactive)
GI50 [37]: 27.4 µM (inactive)
GI50 [38]: 28.2 µM (inactive)
GI50 [39]: 57 µM (inactive)
GI50 [40]: 38.8 µM (inactive)
GI50 [41]: 26 µM (inactive)
GI50 [65]: 19 µM (inactive)
GI50 [42]: 40.6 µM (inactive)
GI50 [66]: 29.3 µM (inactive)
GI50 [43]: 33.5 µM (inactive)
GI50 [44]: 8.11 µM (inactive)
GI50 [45]: 24.6 µM (inactive)
GI50 [46]: 31 µM (inactive)
GI50 [67]: 26.4 µM (inactive)
GI50 [52]: 30.9 µM (inactive)
GI50 [47]: 28.8 µM (inactive)

Reference: ChEMBL document CHEMBL1201862, “PubChem BioAssay data set” (2004)
